Laboratory results reported in patent US20190119282A1, “IMIDAZOPYRIDAZINES USEFUL AS INHIBITORS OF THE PAR-2 SIGNALING PATHWAY” (Vertex Pharmaceuticals Incorporated, priority 2013, published 2019).

Key:
[1] = target: T1, PAR2 (HT-29 cells, SLIGKV activation) (Homo sapiens, UniProt P55085); assay: Ca FLIPR TETRA assay, ANTAGONIST mode, stimulation with 8 μM SLIGKV; type: cell-based; conditions: HT-29 cells, antagonist mode, stimulation with 8 μM SLIGKV
T1 construct: host or cells: HT-29 cells
T1 sequence (P55085 26-397): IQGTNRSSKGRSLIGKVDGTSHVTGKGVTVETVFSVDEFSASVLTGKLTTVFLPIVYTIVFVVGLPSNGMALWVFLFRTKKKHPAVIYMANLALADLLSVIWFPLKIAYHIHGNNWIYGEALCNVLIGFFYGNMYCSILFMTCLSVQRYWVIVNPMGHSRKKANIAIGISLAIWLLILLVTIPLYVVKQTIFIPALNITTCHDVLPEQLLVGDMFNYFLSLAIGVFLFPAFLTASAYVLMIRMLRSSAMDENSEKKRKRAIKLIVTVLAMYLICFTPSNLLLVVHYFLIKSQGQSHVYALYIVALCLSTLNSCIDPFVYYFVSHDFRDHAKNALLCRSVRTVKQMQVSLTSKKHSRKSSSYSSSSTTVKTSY
Summary of the method: (§1)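 Antagonist-mode assay: dye-loaded HT-29 cells, compound 30 min at r.t., then stimulated with final 8 μM SLIGKV, 3.1 U/mL trypsin, 1 U/mL thrombin or 0.6 μM UTP; calcium fluorescence read.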

[2] = target: T2, PAR2 (HT-29 cells, trypsin activation) (Homo sapiens, UniProt P55085); assay: Ca FLIPR TETRA assay, ANTAGONIST mode, stimulation with 3.1 U/mL trypsin; type: cell-based; conditions: HT-29 cells, antagonist mode, stimulation with 3.1 U/mL trypsin
T2 construct: host or cells: HT-29 cells
T2 sequence (P55085 26-397): T1 sequence (P55085 26-397)
Summary of the method: as §1

[3] = system: Thrombin-stimulated Ca2+ response in HT-29 cells; assay: Ca FLIPR TETRA assay, ANTAGONIST mode, stimulation with 1 U/mL Thrombin; type: cell-based, human; conditions: Homo sapiens; HT-29 cells, antagonist mode, stimulation with 1 U/mL Thrombin
Summary of the method: as §1

[4] = system: UTP-stimulated Ca2+ response in HT-29 cells; assay: Ca FLIPR TETRA assay, ANTAGONIST mode, stimulation with 0.6 μM UTP; type: cell-based, human; conditions: Homo sapiens; HT-29 cells, antagonist mode, stimulation with 0.6 μM UTP
Summary of the method: as §1

| IC50 [1] | IC50 [2] | IC50 [3] | IC50 [4] | Compound |
| --- | --- | --- | --- | --- |
| 0.7 nM | 1 nM | > 1000 nM | > 1000 nM | CC(C)(C)c1cc(-c2ccc(F)cc2)nn2cc(C(=O)N3CCN(C(=O)c4ccon4)CC3(C)C)nc12 [Compound I-203] |
| 42.5 nM | 93 nM | > 1000 nM | > 1000 nM | CC1(C)CN(C(=O)C2CC(O)(C(F)(F)F)C2)CCN1C(=O)c1cn2nc(-c3ccc(F)cc3)cc(C3CCOCC3)c2n1 (centres unmarked) [Compound I-204] |
| 310 nM | 580 nM | > 1000 nM | > 1000 nM | CC(C)(C)c1cc(-c2ccc(F)cc2)nn2cc(C(=O)N3CCNCC3(C)C)nc12 [Compound I-205] |
| 0.8 nM | 0.8 nM | > 1000 nM | > 1000 nM | CC(C)(C)c1cc(-c2ccc(F)cc2)nn2cc(C(=O)N3CCN(C4CC4)C(=O)C3(C)C)nc12 [Compound I-206] |
| 9.8 nM | 8.3 nM | > 1000 nM | > 1000 nM | CC(C)N1CCN(C(=O)c2cn3nc(-c4ccc(F)cc4)cc(C(C)(C)C)c3n2)C(C)(C)C1=O [Compound I-207] |
| 85 nM | 103 nM | > 1000 nM | > 1000 nM | CC(C)(C)c1cc(-c2ccc(F)cc2)nn2cc(C(=O)N3CCN(C(F)F)C(=O)C3(C)C)nc12 [Compound I-208] |
| 16.6 nM | 16.6 nM | > 1000 nM | > 1000 nM | C[C@@H]1C[C@H](c2cc(-c3ccc(F)cc3)nn3cc(C(=O)N4CCN(C(=O)OC(C)(C)C)CC4(C)C)nc23)C[C@H](C)O1 [Compound I-209] |
| 4 nM | 3.5 nM | > 1000 nM | > 1000 nM | CC(C)(C)c1cc(-c2ccc(F)cc2)nn2cc(C(=O)N3CCN(C4COC4)C(=O)C3(C)C)nc12 [Compound I-210] |
| 5.4 nM | 4.5 nM | > 1000 nM | > 1000 nM | CCN1CCN(C(=O)c2cn3nc(-c4ccc(F)cc4)cc(C(C)(C)C)c3n2)C(C)(C)C1=O [Compound I-211] |
| 90.3 nM | 54.7 nM | > 1000 nM | > 1000 nM | C=C(C)c1cc(-c2ccc(F)cc2)nn2cc(C(=O)N3CCN(C)C(=O)C3(C)C)nc12 [Compound I-212] |
| 21.2 nM | 26.8 nM | ≥ 1000 nM | > 1000 nM | C[C@@H]1C[C@H](c2cc(-c3ccc(F)cc3)nn3cc(C(=O)N4CCN(C(=O)c5ccn[nH]5)CC4(C)C)nc23)C[C@H](C)O1 [Compound I-214] |
| 12 nM | 18.2 nM | > 1000 nM | > 1000 nM | CC(C)c1cc(-c2ccc(C(F)(F)F)cc2)nn2cc(C(=O)N3CCN(C(=O)C(C)(C)O)CC3(C)C)nc12 [Compound I-215] |
| 108 nM | 190 nM | > 1000 nM | > 1000 nM | Cc1cccc(-c2cc(C(C)C)c3nc(C(=O)N4CCN(C(=O)C(C)(C)O)CC4(C)C)cn3n2)c1 [Compound I-216] |
| 205 nM | 545 nM | > 1000 nM | > 1000 nM | CC(C)c1cc(-c2cccc(C(F)(F)F)c2)nn2cc(C(=O)N3CCN(C(=O)C(C)(C)O)CC3(C)C)nc12 [Compound I-217] |
| 24.8 nM | 39.8 nM | > 1000 nM | > 1000 nM | Cc1ccc(-c2cc(C(C)C)c3nc(C(=O)N4CCN(C(=O)C(C)(C)O)CC4(C)C)cn3n2)cc1 [Compound I-218] |
| 143 nM | 360 nM | > 1000 nM | > 1000 nM | CC(C)c1cc(-c2ccc(OC(F)(F)F)cc2)nn2cc(C(=O)N3CCN(C(=O)C(C)(C)O)CC3(C)C)nc12 [Compound I-219] |

| IC50 [1] | IC50 [2] | IC50 [3] | IC50 [4] | Compound |
| --- | --- | --- | --- | --- |
| 760 nM | 880 nM | > 1000 nM | > 1000 nM | CC(C)c1cc(-c2ccc(C#N)cc2)nn2cc(C(=O)N3CCN(C(=O)C(C)(C)O)CC3(C)C)nc12 [Compound I-220] |
| 23.3 nM | 39.5 nM | > 1000 nM | > 1000 nM | CC(C)c1cc(-c2ccc(F)c(F)c2)nn2cc(C(=O)N3CCN(C(=O)C(C)(C)O)CC3(C)C)nc12 [Compound I-221] |
| 108 nM | 205 nM | > 1000 nM | > 1000 nM | CC(C)c1cc(-c2ccc(F)c(C(F)(F)F)c2)nn2cc(C(=O)N3CCN(C(=O)C(C)(C)O)CC3(C)C)nc12 [Compound I-222] |
| 16.3 nM | 26.7 nM | > 1000 nM | > 1000 nM | Cc1cc(-c2cc(C(C)C)c3nc(C(=O)N4CCN(C(=O)C(C)(C)O)CC4(C)C)cn3n2)ccc1F [Compound I-223] |
| 110 nM | 163 nM | > 1000 nM | > 1000 nM | CC(C)c1cc(-c2cc(F)cc(F)c2)nn2cc(C(=O)N3CCN(C(=O)C(C)(C)O)CC3(C)C)nc12 [Compound I-224] |
| 1.3 nM | 2.5 nM | 230 nM | 230 nM | CC(C)(O)CN1CCN(C(=O)c2cn3nc(-c4ccc(F)cc4)cc(C(C)(C)C)c3n2)C(C)(C)C1=O [Compound I-225] |
| 525 nM | 760 nM | > 1000 nM | > 1000 nM | C[C@H]1CN(C(=O)c2cn3nc(-c4ccc(F)cc4)cc(C(C)(C)C)c3n2)C(C)(C)C(=O)N1 [Compound I-226] |
| 0.5 nM | 0.8 nM | > 1000 nM | > 1000 nM | CC(C)(C)c1cc(-c2ccc(F)cc2)nn2cc(C(=O)N3CCN(C(=O)c4ncc[nH]4)CC3(C)C)nc12 [Compound I-229] |
| 2.4 nM | 5.5 nM | 730 nM | > 1000 nM | CC(C)(C)c1cc(-c2ccc(F)cc2)nn2cc(C(=O)N3CCN(C(=O)c4cncnc4)CC3(C)C)nc12 [Compound I-230] |
| 1.1 nM | 1.6 nM | > 1000 nM | > 1000 nM | CC(C)(C)c1cc(-c2ccc(F)cc2)nn2cc(C(=O)N3CCN(C(=O)c4ccncn4)CC3(C)C)nc12 [Compound I-231] |
| 5 nM | 6.8 nM | > 1000 nM | > 1000 nM | CC(CO)N1CCN(C(=O)c2cn3nc(-c4ccc(F)cc4)cc(C(C)(C)C)c3n2)C(C)(C)C1=O (centres unmarked) [Compound I-233] |
| 0.9 nM | 1.3 nM | > 1000 nM | > 1000 nM | CC(C)(C)c1cc(-c2ccc(F)cc2)nn2cc(C(=O)N3CCN(C#N)C(=O)C3(C)C)nc12 [Compound I-234] |
| 0.7 nM | 1.1 nM | > 1000 nM | 930 nM | CC(C)(C)c1cc(-c2ccc(F)cc2)nn2cc(C(=O)N3CCN(c4nn[nH]n4)C(=O)C3(C)C)nc12 [Compound I-235] |
| 8.2 nM | 18.6 nM | > 1000 nM | > 1000 nM | CC(C)c1cc(-c2ccc(F)cc2)nn2cc(C(=O)N3CCN(C(=O)c4ccncn4)CC3(C)C)nc12 [Compound I-236] |
| 5.8 nM | 14.1 nM | > 1000 nM | > 1000 nM | CC(C)c1cc(-c2ccc(F)cc2)nn2cc(C(=O)N3CCN(C(=O)c4nc[nH]n4)CC3(C)C)nc12 [Compound I-237] |
| 2.5 nM | 8.5 nM | > 1000 nM | > 1000 nM | CC(C)c1cc(-c2ccc(F)cc2)nn2cc(C(=O)N3CCN(C(=O)c4ncc[nH]4)CC3(C)C)nc12 [Compound I-238] |
